Test results published in patent publication US9562021B2, “Histone deacetylase inhibitors and compositions and methods of use thereof” (CHDI Foundation, Inc., priority 2013, dated 2017).
Where two headings read alike, the source gives them in different places.

How the values were obtained:
[1] = PK study (iv and po 10 mg/kg), plasma, brain and muscle; type: in vivo; conditions: for clearance: read-out: Clearance (CLp) (converted); for Vd: read-out: Volume of Distribution at Steady State (Vdss)
[2] = target: T1, HDAC4 (Homo sapiens, UniProt P56524); assay: HDAC4 (bioch) IC50; type: biochemical
[3] = target: T1, HDAC4; assay: HDAC4 (cell) IC50; type: cell-based; conditions: Table 3
[4] = MDCK apparent permeability (Papp A>B); type: in vitro ADME; conditions: dog, pH 7.4
[5] = Hepatic microsomal stability, mouse; type: in vitro ADME; conditions: mouse liver microsomes
[6] = tested on: Boc-Lys(Ac); assay: Boc-Lys(Ac) IC50; type: cell-based
[7] = tested on: cellular histone deacetylase activity in Jurkat E6-1 cells; assay: Inhibition of cellular HDAC activity, Boc-Lys(Tfa)-AMC substrate; type: cell-based; conditions: Homo sapiens, Class IIa selective substrate
From the text: The potency of exemplifying compounds described herein is quantified by measuring the cellular histone deacetylase enzymatic activity using the Class IIa selective substrate, Boc-Lys(Tfa)-AMC. After penetration in Jurkat E6-1 cells, the substrate is deacetylated to Boc-Lys-AMC. After cell lysis and cleavage by trypsin, the fluorophore AMC is released from the deacetylated substrate only. The fluoresence of the sample is directly related to the histone deacetylase activity in the sample.
Jurkat E6.1 Cell Culture and Plating. Jurkat E6.1 cells are cultured according to standard cell culture protocols in Jurkat E6.1 Growth Media (RPMI without phenol red, 10% FBS, 10 mM HEPES, and 1 mM Sodium Pyruvate). Jurkat E6.1 cells are counted using a Coulter Counter and resuspended in Jurkat E6.1 growth media at a concentration of 75,000 cells/35 μL. 35 μL or 75,000 cells is seeded into Greiner microtitre assay plates. The plates are then incubated at 37° C. and 5% CO2 while other assay components are being prepared.
Serially Dilute HDAC Inhibitor Compounds. […]
Assay. […] Finally the top read fluorescence (Excitation: 355 nm, Emission: 460 nm) is measured using PerkinElmer EnVision.

[8] = target: T2, human HDAC7 (Homo sapiens, UniProt Q8WUI4); assay: Inhibition of HDAC7, Boc-Lys(Tfa)-AMC substrate; type: biochemical
T2 construct: amino acids 518-end with a N-terminal Glutathione S-transferase (GST) tag; GST (N); purchased BPS BioScience; host or cells: baculovirus expression system
T2 sequence (Q8WUI4 518-952 limits assumed): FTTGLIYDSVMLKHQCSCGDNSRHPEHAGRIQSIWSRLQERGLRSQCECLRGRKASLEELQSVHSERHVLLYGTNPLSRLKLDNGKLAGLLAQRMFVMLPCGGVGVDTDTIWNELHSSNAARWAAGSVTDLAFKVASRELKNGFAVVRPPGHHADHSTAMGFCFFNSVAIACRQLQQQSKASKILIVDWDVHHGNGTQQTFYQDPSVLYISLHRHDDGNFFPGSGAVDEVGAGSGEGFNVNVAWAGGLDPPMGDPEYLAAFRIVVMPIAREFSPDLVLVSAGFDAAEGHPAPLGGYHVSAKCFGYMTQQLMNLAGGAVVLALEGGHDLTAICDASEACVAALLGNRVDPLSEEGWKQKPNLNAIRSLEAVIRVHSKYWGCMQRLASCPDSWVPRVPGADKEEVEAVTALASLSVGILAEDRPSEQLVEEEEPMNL

[9] = target: T3, HDAC8 (Homo sapiens, UniProt Q9BY41); assay: cat. HDAC8 IC50; type: biochemical
T3 sequence (Q9BY41 1-377): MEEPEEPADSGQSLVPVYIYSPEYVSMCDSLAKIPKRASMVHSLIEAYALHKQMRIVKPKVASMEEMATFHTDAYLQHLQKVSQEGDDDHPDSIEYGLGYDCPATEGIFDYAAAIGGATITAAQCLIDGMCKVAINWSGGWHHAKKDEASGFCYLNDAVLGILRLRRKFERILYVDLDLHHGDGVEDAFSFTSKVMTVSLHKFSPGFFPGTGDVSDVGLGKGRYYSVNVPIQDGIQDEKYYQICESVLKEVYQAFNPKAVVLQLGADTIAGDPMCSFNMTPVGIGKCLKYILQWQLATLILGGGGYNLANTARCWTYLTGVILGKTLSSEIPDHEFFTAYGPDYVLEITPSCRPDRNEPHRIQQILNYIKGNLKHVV

[10] = target: HDAC3 (Homo sapiens, UniProt O15379); assay: cat. HDAC3 IC50; type: biochemical
[11] = target: T4, HDAC6 (Homo sapiens, UniProt Q9UBN7); assay: cat. HDAC6 IC50; type: biochemical
T4 sequence (Q9UBN7 1-1215): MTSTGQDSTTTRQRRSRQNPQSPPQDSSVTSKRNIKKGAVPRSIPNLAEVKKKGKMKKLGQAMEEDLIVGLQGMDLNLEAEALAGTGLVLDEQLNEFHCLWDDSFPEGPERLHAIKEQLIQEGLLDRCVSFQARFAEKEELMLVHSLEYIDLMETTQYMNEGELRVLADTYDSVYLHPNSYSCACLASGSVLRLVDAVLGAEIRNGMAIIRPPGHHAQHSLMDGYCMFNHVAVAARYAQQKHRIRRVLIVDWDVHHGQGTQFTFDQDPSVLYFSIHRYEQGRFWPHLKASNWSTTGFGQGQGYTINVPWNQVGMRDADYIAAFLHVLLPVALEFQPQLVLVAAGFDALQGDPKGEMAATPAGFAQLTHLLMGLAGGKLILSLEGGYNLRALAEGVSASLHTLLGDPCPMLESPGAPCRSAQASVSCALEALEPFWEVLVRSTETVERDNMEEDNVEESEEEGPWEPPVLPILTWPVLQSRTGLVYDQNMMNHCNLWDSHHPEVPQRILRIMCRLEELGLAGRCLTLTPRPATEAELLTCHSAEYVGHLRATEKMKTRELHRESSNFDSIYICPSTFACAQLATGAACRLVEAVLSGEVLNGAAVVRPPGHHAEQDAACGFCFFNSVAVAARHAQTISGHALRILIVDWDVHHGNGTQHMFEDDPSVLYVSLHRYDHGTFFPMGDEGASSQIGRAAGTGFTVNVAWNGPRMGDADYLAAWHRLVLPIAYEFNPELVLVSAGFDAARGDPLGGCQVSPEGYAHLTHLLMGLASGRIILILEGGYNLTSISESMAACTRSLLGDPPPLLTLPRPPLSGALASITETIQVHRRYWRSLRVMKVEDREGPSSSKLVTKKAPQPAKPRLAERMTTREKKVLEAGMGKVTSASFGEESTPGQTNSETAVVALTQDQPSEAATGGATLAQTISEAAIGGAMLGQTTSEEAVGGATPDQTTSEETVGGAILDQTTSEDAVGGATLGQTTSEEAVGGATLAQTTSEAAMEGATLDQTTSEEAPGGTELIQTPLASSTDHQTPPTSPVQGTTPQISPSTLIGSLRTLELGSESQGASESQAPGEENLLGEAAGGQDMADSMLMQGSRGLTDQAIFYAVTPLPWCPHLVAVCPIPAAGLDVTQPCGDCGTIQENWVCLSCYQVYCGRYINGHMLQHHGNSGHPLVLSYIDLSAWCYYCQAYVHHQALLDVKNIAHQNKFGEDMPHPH

[12] = target: T5, human HDAC9 (Homo sapiens, UniProt Q9UKV0); assay: Inhibition of HDAC9, Boc-Lys(Tfa)-AMC substrate; type: biochemical
T5 construct: amino acids 604-1066 with a C-terminal His tag; His (C); purchased BPS BioScience; host or cells: baculovirus expression system

[13] = target: T6, human HDAC5 catalytic domain (Homo sapiens, UniProt Q9UQL6); assay: Inhibition of HDAC5 catalytic domain, Boc-Lys(Tfa)-AMC substrate; type: biochemical
T6 construct: amino acids 657-1123 with a C-terminal His tag; His (C); purchased BPS BioScience; host or cells: baculovirus expression system

[14] = 5 mg eq./Kg, IV PK, brain, read-out: Brain-plasma
[15] = 5 mg eq./Kg, IV PK, muscle section, read-out: Brain-plasma
[16] = 10 mg/Kg, Oral PK, brain, read-out: Brain-plasma
[17] = 10 mg/Kg, Oral PK, muscle, read-out: Muscle-plasma
[18] = Table 3, read-out: IC50 μM (bioch)

T1 sequence (P56524 whole entry): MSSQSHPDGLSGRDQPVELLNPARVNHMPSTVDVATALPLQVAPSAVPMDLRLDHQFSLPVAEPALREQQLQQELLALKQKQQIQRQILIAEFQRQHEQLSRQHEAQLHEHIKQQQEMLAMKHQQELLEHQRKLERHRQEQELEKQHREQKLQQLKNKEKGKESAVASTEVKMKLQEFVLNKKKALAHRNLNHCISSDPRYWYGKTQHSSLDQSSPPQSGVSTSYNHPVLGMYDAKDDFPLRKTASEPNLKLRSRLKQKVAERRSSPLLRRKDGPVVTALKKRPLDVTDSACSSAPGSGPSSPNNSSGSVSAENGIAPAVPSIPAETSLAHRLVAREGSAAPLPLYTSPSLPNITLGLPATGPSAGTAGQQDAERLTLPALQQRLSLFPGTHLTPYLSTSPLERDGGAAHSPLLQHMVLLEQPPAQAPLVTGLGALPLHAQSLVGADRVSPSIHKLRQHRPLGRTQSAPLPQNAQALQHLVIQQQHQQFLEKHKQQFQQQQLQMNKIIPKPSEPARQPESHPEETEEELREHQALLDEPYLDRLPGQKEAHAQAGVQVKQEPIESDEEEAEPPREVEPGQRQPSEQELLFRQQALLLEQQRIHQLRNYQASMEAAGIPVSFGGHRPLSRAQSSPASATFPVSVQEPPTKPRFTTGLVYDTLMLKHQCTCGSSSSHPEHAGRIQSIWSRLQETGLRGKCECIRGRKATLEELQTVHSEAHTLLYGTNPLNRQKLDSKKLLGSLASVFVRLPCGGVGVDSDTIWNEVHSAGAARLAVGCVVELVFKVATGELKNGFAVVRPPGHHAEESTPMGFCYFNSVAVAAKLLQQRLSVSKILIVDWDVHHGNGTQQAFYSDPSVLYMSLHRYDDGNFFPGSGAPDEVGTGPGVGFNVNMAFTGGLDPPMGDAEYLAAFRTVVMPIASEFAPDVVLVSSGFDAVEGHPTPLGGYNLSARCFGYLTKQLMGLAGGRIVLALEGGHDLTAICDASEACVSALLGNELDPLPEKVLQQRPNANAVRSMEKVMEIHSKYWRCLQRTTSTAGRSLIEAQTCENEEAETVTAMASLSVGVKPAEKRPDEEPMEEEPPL
T5 sequence (Q9UKV0 604-1066 isoform Q9UKV0-5): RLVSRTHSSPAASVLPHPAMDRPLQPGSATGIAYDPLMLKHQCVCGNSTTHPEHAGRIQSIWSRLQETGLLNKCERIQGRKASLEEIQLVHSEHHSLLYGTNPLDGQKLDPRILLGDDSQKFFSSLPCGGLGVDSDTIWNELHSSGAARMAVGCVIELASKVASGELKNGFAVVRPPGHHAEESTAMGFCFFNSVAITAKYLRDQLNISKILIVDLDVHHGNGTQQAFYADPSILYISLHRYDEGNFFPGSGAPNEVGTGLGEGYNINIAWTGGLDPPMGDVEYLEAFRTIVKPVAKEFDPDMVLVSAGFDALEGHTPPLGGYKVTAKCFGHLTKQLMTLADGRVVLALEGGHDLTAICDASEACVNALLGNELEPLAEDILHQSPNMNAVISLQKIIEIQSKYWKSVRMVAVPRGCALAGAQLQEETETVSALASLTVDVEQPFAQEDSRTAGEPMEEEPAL
Chain of HDAC3 (O15379 whole entry): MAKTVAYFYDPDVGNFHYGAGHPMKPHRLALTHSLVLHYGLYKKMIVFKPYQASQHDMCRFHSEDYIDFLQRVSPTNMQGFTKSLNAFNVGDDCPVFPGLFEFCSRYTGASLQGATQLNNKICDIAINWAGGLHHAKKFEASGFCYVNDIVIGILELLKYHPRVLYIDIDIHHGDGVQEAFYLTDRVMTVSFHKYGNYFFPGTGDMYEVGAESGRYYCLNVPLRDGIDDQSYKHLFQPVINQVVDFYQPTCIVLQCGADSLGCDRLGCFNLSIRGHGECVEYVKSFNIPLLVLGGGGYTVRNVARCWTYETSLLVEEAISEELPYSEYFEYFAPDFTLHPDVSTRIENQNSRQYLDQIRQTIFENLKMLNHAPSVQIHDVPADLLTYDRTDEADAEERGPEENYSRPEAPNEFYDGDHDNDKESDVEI
Chain of HDAC3 (Q9Y618 395-489 partner limits assumed): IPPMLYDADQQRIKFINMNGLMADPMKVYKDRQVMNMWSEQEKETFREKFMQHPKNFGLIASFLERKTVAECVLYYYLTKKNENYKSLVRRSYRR
T6 sequence (Q9UQL6 656-1122): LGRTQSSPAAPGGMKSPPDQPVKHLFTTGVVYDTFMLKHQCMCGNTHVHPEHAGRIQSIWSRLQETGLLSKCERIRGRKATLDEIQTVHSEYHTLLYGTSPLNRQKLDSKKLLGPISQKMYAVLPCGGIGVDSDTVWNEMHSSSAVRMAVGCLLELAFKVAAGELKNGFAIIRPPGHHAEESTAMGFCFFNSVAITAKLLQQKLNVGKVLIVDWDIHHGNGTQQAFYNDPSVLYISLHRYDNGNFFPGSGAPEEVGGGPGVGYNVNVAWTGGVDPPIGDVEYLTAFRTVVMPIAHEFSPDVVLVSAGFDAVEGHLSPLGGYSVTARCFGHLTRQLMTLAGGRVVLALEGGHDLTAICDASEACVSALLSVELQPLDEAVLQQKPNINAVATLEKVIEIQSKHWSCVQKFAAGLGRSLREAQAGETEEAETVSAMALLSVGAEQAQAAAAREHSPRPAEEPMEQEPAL

| SMILES | half-life ([1]; 5 mg eq./Kg, IV PK, brain) [h] | Kp [1, 14] | half-life ([1]; 5 mg eq./Kg, IV PK, muscle) [h] | Kp [1, 15] | half-life ([1]; 5 mg eq./Kg, IV PK, plasma) [h] | clearance ([1]; 5 mg eq./Kg, IV PK, plasma) [mL/min/kg] | Vd ([1]; 5 mg eq./Kg, IV PK, plasma) [L/kg] | Kp [1, 16] | Kp [1, 17] | AUCnorm ([1]; IV PK, brain) [nM·kg·h/mg] | AUCnorm ([1]; IV PK, muscle) [nM·kg·h/mg] | AUCnorm ([1]; IV PK, plasma) [nM·kg·h/mg] | AUCnorm ([1]; Oral PK, brain) [nM·kg·h/mg] | AUCnorm ([1]; Oral PK, muscle) [nM·kg·h/mg] | AUCnorm ([1]; Oral PK, plasma) [nM·kg·h/mg] | Bioavaiability ([1]; Oral PK, plasma) [%] | Observed CmaxNorm ([1]; Oral PK, plasma) [nM·kg/mg] | IC50 [2, 18] [µM] | IC50 [3] [µM] | Papp A→B at 1 h, 10 μM [4] [×10⁻⁶ cm/s] | other results |
| --- | --- | --- | --- | --- | --- | --- | --- | --- | --- | --- | --- | --- | --- | --- | --- | --- | --- | --- | --- | --- | --- |
| O=C(NO)C(c1ccc(N2CCOCC2)cc1)c1ccccc1F (centres unmarked) | 3.3 | 0.54 to 8.9 | 4.8 | 1.9 to 21 | 1.8 | 123 | 3.1 | 0.67 to 3.4 | 1.5 to 5.2 | 511 | 1048 | 409 | 151 | 260 | 109 | 27 | 95 | 0.07 | 0.64 | 23.4 | MLM [5]: 93 mL/min/kg BW |
| Cc1ncc(-c2ccc(C(C(=O)NO)c3ccccc3F)cc2)cn1 (centres unmarked) [Compound 6, 2-(2-fluorophenyl)-N-hydroxy-2-(4-(2-methylpyrimidin-5-yl)phenyl)acetamide] |  |  |  |  |  |  |  |  |  |  |  |  |  |  |  |  |  |  |  |  | IC50 [6]: > 50000 nM; IC50 [7]: 120 nM |
| O=C(NO)C(c1ccc(-c2ncc(C(F)(F)F)cn2)cc1)c1ccccc1F (centres unmarked) [Compound 8, 2-(2-fluorophenyl)-N-hydroxy-2-(4-(5-(trifluoromethyl)pyrimidin-2-yl)phenyl)acetamide] |  |  |  |  |  |  |  |  |  |  |  |  |  |  |  |  |  |  |  |  | IC50 [6]: > 50000 nM; IC50 [7]: 59 nM |
| O=C(NO)C(c1ccccc1)c1ccc(-c2cncnc2)cc1 (centres unmarked) [drawing 19] | 2.2 | 0.12 to 2 | 4 | 1.1 to 8.9 | 1.8 | 107 | 2.6 | 0.15 to 1.4 | 1 to 8 | 162 | 835 | 516 | 58 | 306 | 179 | 35 | 257 | 0.09 | 0.55 | 17.5 | half-life ([1]; 10 mg/Kg, Oral PK, brain): 2.7 h; half-life ([1]; 10 mg/Kg, Oral PK, muscle): 4 h; half-life ([1]; 10 mg/Kg, Oral PK, plasma): 1.9 h; MLM [5]: 77 mL/min/kg BW |
| O=C(NO)C(c1ccccc1)c1ccc(-c2cncnc2)cc1 (centres unmarked) [drawing 21] |  |  |  |  |  |  |  |  |  |  |  |  |  |  |  |  |  |  |  |  | IC50 ([2]; Table 4, bioch, read-out: HDAC4): 0.09 µM; Fold Selectivity (bioch) HDAC7:HDAC4 [8]: 0.8; Fold Selectivity (bioch) HDAC8:HDAC4 [9]: 60; Fold Selectivity (bioch) HDAC3:HDAC4 [10]: 320; Fold Selectivity (bioch) HDAC6:HDAC4 [11]: 50; Fold Selectivity (bioch) HDAC9:HDAC4 [12]: 1; Fold Selectivity (bioch) HDAC5:HDAC4 [13]: 0.3 |
